Patent US12208088B2 (Genentech, Inc., priority 2018, dated 2025)

target: HPK1 (Homo sapiens (Human), UniProt Q92918); test: HPK1 Lantha binding assay ("Lanth"); settings: binding assays; Morrison Ki fit
Summary of the method: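 Ki values are from Morrison-equation fitting of 665/615 nm TR-FRET signals, taking enzyme level, tracer level and tracer Kd into account. The assay mix held HPK1 (2 nM), Eu-anti-GST antibody (2 nM) and Tracer222 (15 nM). Incubations were two 1 h steps at 23 °C, on 5-fold serial compound dilutions.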

Sequence of HPK1 (Q92918 1-346 limits assumed): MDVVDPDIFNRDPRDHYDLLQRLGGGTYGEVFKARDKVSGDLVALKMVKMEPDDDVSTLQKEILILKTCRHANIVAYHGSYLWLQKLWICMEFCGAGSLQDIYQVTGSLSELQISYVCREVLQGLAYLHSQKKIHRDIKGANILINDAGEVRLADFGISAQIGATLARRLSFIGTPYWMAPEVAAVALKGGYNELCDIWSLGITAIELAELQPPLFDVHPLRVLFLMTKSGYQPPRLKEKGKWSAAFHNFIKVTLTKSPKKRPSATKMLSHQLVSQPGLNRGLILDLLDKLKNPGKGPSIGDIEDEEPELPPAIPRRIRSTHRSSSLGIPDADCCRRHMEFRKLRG

Ki [µM] | Structure (SMILES)
0.0635 | CN(C)C(=O)c1c(N)ccc(-c2cnc3c(c2Cl)[C@]2(CC[C@H](C(N)=O)C2)CN3)c1F (single isomer, unassigned) [Compound 100a]
0.00174 | CN(C)C(=O)c1c(N)ccc(-c2cnc3c(c2Cl)[C@@]2(CC[C@@H](C(N)=O)C2)CN3)c1F (single isomer, unassigned) [Compound 100b]
0.00985 | CN(C)C(=O)c1c(N)ccc(-c2cnc3c(c2Cl)[C@]2(CC[C@H](C(=O)O)C2)CN3)c1F (single isomer, unassigned) [Compound 105a]
0.0501 | CN(C)C(=O)c1c(N)ccc(-c2cnc3c(c2Cl)[C@]2(CC[C@H](C(=O)N(C)C)C2)CN3)c1F (single isomer, unassigned) [Compound 107a]
0.14 | CN(C)C(=O)c1c(N)ccc(-c2cnc3c(c2Cl)[C@]2(CC[C@](O)(Cn4cncn4)C2)CN3)c1F (single isomer, unassigned) [Compound 116c]
0.00849 | CN(C)C(=O)c1c(N)ccc(-c2cnc3c(c2Cl)[C@]2(CC[C@H](n4ncnc4N)C2)CN3)c1F (single isomer, unassigned) [Compound 118a]
0.0376 | CN(C)C(=O)c1c(N)ccc(-c2cnc3c(c2Cl)[C@@]2(CCC(=O)NC2)CN3)c1F (single isomer, unassigned) [Compound 123a]
0.771 | CN(C)C(=O)c1c(N)ccc(-c2cnc3c(c2Cl)[C@]2(CCC(=O)NC2)CN3)c1F (single isomer, unassigned) [Compound 123b]
0.0466 | C[C@H]1Nc2ncc(-c3ccc(N)c(C(=O)N(C)C)c3F)cc2C12CC2 (single isomer, unassigned) [Compound 128a]
0.0422 | C[C@@H]1Nc2ncc(-c3ccc(N)c(C(=O)N(C)C)c3F)cc2C12CC2 (single isomer, unassigned) [Compound 128b]
0.00393 | CN(C)C(=O)c1c(N)ccc(-c2cnc3c(c2Cl)[C@]2(CC[C@](C)(C#N)C2)CN3)c1F (single isomer, unassigned) [Compound 131a]
0.00295 | CN(C)C(=O)c1c(N)ccc(-c2cnc3c(c2Cl)[C@]2(CC[C@@H](CC(N)=O)C2)CN3)c1F (single isomer, unassigned) [Compound 135c]
0.157 | CN(C)C(=O)c1c(N)ccc(-c2cnc3c(c2Cl)[C@]2(CC[C@H](N4CCCC4=O)C2)CN3)c1F (single isomer, unassigned) [Compound 143a]
0.0746 | CN(C)C(=O)c1c(N)ccc(-c2cnc3c(c2Cl)[C@@]2(CN3)C[C@H](O)[C@@H](n3ccnn3)C2)c1F (single isomer, unassigned) [Compound 146c]
0.0848 | CN(C)C(=O)c1c(N)ccc(-c2cnc3c(c2Cl)[C@@]2(CC[C@@](C)(C(N)=O)C2)CN3)c1F (single isomer, unassigned) [Compound 155b]
0.103 | Cc1cc(C#N)nn1[C@H]1CC[C@@]2(CNc3ncc(-c4ccc(N)c(C(=O)N(C)C)c4F)c(Cl)c32)C1 (single isomer, unassigned) [Compound 162a]
0.0263 | CN(C)C(=O)c1c(N)ccc(-c2cnc3c(c2Cl)[C@]2(CC[C@H](n4ccc(C(F)(F)F)n4)C2)CN3)c1F (single isomer, unassigned) [Compound 168a]
0.0742 | Cn1cc([C@H]2CCCN2C(=O)c2cccc(-c3cnc4c(c3)C3(CC3)CN4)c2F)cn1 (single isomer, unassigned) [Compound 174a]
0.582 | Cn1cc([C@@H]2CCCN2C(=O)c2cccc(-c3cnc4c(c3)C3(CC3)CN4)c2F)cn1 (single isomer, unassigned) [Compound 174b]
0.0042 | Cn1cc([C@H]2CCCCN2C(=O)c2cccc(-c3cnc4c(c3)C3(CC3)CN4)c2F)cn1 (single isomer, unassigned) [Compound 175a]
0.945 | Cn1cc([C@@H]2CCCCN2C(=O)c2cccc(-c3cnc4c(c3)C3(CC3)CN4)c2F)cn1 (single isomer, unassigned) [Compound 175b]
0.194 | Cn1cccc(-c2cccc(-c3cnc4c(c3Cl)[C@]3(CC[C@](C)(C(N)=O)C3)CN4)c2)c1=O (single isomer, unassigned) [Compound 179a]
0.00091 | Cn1cccc(-c2cccc(-c3cnc4c(c3Cl)[C@@]3(CC[C@@](C)(C(N)=O)C3)CN4)c2)c1=O (single isomer, unassigned) [Compound 179b]
0.0347 | CC1(C#N)CCCN1C(=O)c1cccc(-c2cnc3c(c2)C2(CC2)CN3)c1F (single isomer, unassigned) [Compound 191a]
0.00364 | CC(C)[C@H]1C[C@@]12CNc1ncc(-c3ccc(N)c(C(=O)N(C)C)c3F)c(Cl)c12 (single isomer, unassigned) [Compound 193a]
0.00141 | CC(C)[C@@H]1C[C@]12CNc1ncc(-c3ccc(N)c(C(=O)N(C)C)c3F)c(Cl)c12 (single isomer, unassigned) [Compound 193b]
0.00623 | CN(C)C(=O)c1cccc(-c2cnc3c(c2Cl)[C@]2(CC[C@](C)(C(N)=O)C2)CN3)c1F (single isomer, unassigned) [Compound 195b]

Ki [µM] | Structure (SMILES)
0.00513 | CCC[C@H]1C[C@@]12CNc1ncc(-c3ccc(N)c(C(=O)N(C)C)c3F)c(Cl)c12 (single isomer, unassigned) [Compound 197a]
0.00364 | CCC[C@@H]1C[C@]12CNc1ncc(-c3ccc(N)c(C(=O)N(C)C)c3F)c(Cl)c12 (single isomer, unassigned) [Compound 197b]
0.941 | CN(C)C(=O)c1cccc(-c2cnc3c(c2)[C@]2(CC[C@](C)(C(N)=O)C2)CN3)c1F (single isomer, unassigned) [Compound 199a]
0.105 | CN(C)C(=O)c1cccc(-c2cnc3c(c2)[C@@]2(CC[C@@](C)(C(N)=O)C2)CN3)c1F (single isomer, unassigned) [Compound 199b]
0.0219 | C[C@]1(C(N)=O)CC[C@@]2(CNc3ncc(-c4cccc(N5CCOCC5=O)c4F)c(Cl)c32)C1 (single isomer, unassigned) [Compound 202b]
0.0094 | CCC[C@H]1C[C@@]12CNc1ncc(-c3ccc(N)c(C(=O)N(C)C)c3F)cc12 (single isomer, unassigned) [Compound 217a]
0.00905 | CCC[C@@H]1C[C@]12CNc1ncc(-c3ccc(N)c(C(=O)N(C)C)c3F)cc12 (single isomer, unassigned) [Compound 217b]
0.0679 | CCC[C@@H]1C[C@@]12CNc1ncc(-c3ccc(N)c(C(=O)N(C)C)c3F)cc12 (single isomer, unassigned) [Compound 217c]
0.0234 | CCC[C@H]1C[C@]12CNc1ncc(-c3ccc(N)c(C(=O)N(C)C)c3F)cc12 (single isomer, unassigned) [Compound 217d]
0.00476 | C[C@H]1C[C@@]12CNc1ncc(-c3ccc(N)c(C(=O)N(C)C)c3F)c(Cl)c12 (single isomer, unassigned) [Compound 228a]
0.00173 | C[C@@H]1C[C@]12CNc1ncc(-c3ccc(N)c(C(=O)N(C)C)c3F)c(Cl)c12 (single isomer, unassigned) [Compound 228b]
0.011 | C[C@H](c1cnn(C)c1)N(C)C(=O)c1cccc(-c2cnc3c(c2)C2(CC2)CN3)c1F (single isomer, unassigned) [Compound 229a]
0.013 | C[C@@H](c1cnn(C)c1)N(C)C(=O)c1cccc(-c2cnc3c(c2)C2(CC2)CN3)c1F (single isomer, unassigned) [Compound 229b]
0.00392 | CC(C)[C@H]1C[C@@]12CNc1ncc(-c3ccc(N)c(C(=O)N(C)C)c3F)cc12 (single isomer, unassigned) [Compound 234a]
0.103 | CC(C)[C@@H]1C[C@@]12CNc1ncc(-c3ccc(N)c(C(=O)N(C)C)c3F)cc12 (single isomer, unassigned) [Compound 234c]
0.0519 | CC(C)C1C[C@]12CNc1ncc(-c3ccc(N)c(C(=O)N(C)C)c3F)cc12 (single isomer, unassigned) [Compound 234d]
0.00089 | Cn1cc([C@H]2CCCCN2C(=O)c2c(N)ccc(-c3cnc4c(c3Cl)C3(CC=CC3)CN4)c2F)cn1 (single isomer, unassigned) [Compound 239a]
0.021 | Cn1cc([C@@H]2CCCCN2C(=O)c2c(N)ccc(-c3cnc4c(c3Cl)C3(CC=CC3)CN4)c2F)cn1 (single isomer, unassigned) [Compound 239b]
0.00387 | Cn1cc([C@H]2CCCCN2C(=O)c2cccc(-c3cnc4c(c3Cl)C3(CC=CC3)CN4)c2F)cn1 (single isomer, unassigned) [Compound 240a]
0.112 | Cn1cc([C@@H]2CCCCN2C(=O)c2cccc(-c3cnc4c(c3Cl)C3(CC=CC3)CN4)c2F)cn1 (single isomer, unassigned) [Compound 240b]
0.00578 | CC[C@H]1C[C@@]12CNc1ncc(-c3ccc(N)c(C(=O)N(C)C)c3F)cc12 (single isomer, unassigned) [Compound 243a]
0.0104 | CC[C@@H]1C[C@]12CNc1ncc(-c3ccc(N)c(C(=O)N(C)C)c3F)cc12 (single isomer, unassigned) [Compound 243b]
0.0631 | CC[C@@H]1C[C@@]12CNc1ncc(-c3ccc(N)c(C(=O)N(C)C)c3F)cc12 (single isomer, unassigned) [Compound 243c]
0.0251 | CC[C@H]1C[C@]12CNc1ncc(-c3ccc(N)c(C(=O)N(C)C)c3F)cc12 (single isomer, unassigned) [Compound 243d]
0.0103 | Cn1cc(C2CCCCN2C(=O)c2cccc(-c3cnc4c(c3Cl)[C@]3(CC[C@H](O)CC3)CN4)c2F)cn1 (single isomer, unassigned) [Compound 246a]
0.316 | Cn1cc(C2CCCCN2C(=O)c2cccc(-c3cnc4c(c3Cl)[C@]3(CC[C@H](O)CC3)CN4)c2F)cn1 (single isomer, unassigned) [Compound 246b]
0.0231 | Cn1cc(C2CCCCN2C(=O)c2c(N)ccc(-c3cnc4c(c3)[C@]3(CC[C@H](O)CC3)CN4)c2F)cn1 (single isomer, unassigned) [Compound 253a]
